Like-named read-outs stand apart in the source and are kept apart here.
Tests used:
hrMAO-B = target: T1, hrMAO-B (Homo sapiens, UniProt P27338); test: Inhibition of monoamine oxidase B (Amplex UltraRed, tyramine); type: biochemical; details: for Selectivity Index (MAO-A/MAO-B): ratio IC50 MAO-A/IC50 MAO-B
T1 construct: purchased Sigma–Aldrich
T1 sequence (P27338 1-520): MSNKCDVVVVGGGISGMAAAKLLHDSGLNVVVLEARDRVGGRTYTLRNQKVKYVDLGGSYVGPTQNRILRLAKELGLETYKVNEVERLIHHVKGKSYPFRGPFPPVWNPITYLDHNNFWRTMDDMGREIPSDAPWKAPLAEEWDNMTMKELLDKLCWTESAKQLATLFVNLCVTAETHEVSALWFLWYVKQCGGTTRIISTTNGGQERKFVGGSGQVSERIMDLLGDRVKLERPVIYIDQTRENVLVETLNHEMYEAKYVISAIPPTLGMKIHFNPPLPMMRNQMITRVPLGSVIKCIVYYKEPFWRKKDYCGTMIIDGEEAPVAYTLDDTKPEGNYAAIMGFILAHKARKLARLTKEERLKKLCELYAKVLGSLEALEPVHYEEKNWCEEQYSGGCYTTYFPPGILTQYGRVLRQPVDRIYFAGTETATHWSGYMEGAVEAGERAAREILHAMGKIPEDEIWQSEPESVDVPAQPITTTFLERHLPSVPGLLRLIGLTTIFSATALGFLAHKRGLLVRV

SH-SY5Y cells = test: Neuroprotection in SH-SY5Y against rotenone/oligomycin A (MTT); type: cell-based, human; details: compound 0.1 µM, 24 h pre- and 24 h co-incubation
Procedure: Cells were seeded at a density of 60,000 cells/well in 96-well transparent plates for 24 h. Then cells were pre-incubated with the corresponding compound at 0.1 μM. After 24 h, the medium was removed and replaced with 1% (v/v) FBS media containing the corresponding compound at 0.1 µM and the selected toxic stimuli, namely a mixture of rotenone and oligomycin A (R/O; 30/10 μM, respectively; Sigma–Aldrich, Spain) or 6-hydroxydopamine (100 µM; Sigma–Aldrich, Spain). […].

AREc32 = details: MTT reduction
Procedure: AREc32 cells, shared by CR Wolf, were grown in Dulbecco’s modified Eagle medium (DMEM) with GlutaMAX (Gibco, Invitrogen, Madrid, Spain), supplemented with 10% (v/v) filtrated fetal bovine serum (FBS; Gibco, Invitrogen, Madrid, Spain), 1% of antibiotics penicillin-streptomycin, and geneticin (0.8 mg/mL G418; Gibco, Invitrogen, Madrid, Spain). […] They were recovered by centrifugation at 800 rpm for 10 min. Cells were used from the third to twelfth passage.
(§1) Basal absorbance was set to 100% and results were normalized to basal conditions.
(§2) Cytotoxicity. LD50 values in several cell cultures employed
(§3) Table S2. Cytotoxicity elicited by 10-18 compounds in SH-SY5Y, AREc32 and mixed pr imary glial cultures. Viability was measured as MTT reduction in presence of increasing concentrations of der ivatives. LD50 values were calcula ted from dose-response curves. Data are expr essed as mean ± SEM of at least 3 independent experiments.
(§4) 1.3. PAMPA control compounds (BBB permeability)
(§5) Table S3. Pr ediction of the BBB passive permeability of control compounds

[1] = tested on: blood-brain barrier (passive diffusion); test: in vitro; details: PAMPA, pH 7.4
SH-SY5Y = details: MTT reduction
Procedure: They were recovered by centrifugation at 800 rpm for 10 min. Cells from the third to twelfth passage were seeded at a density of 80,000 cells/well in 96-well plates for the neuroprotection studies.
as §1, §2, §3, §4, §5

rat striatal slices = test: Rat striatal slices exposed to rotenone: ROS production; type: cell-based; details: compound 10 µM, rotenone 10 µM, 4 h
Procedure: Three- to four-month-old Sprague–Dawley rats were decapitated, the brain was removed, and the two brain hemispheres were separated. Each hemisphere was then cut into 300-µm coronal slices using a McIlwain Tissue Chopper (Cavey Laboratory Engineering, Surrey, UK) and separated in a previously oxygenated (95% O2 and 5% CO2) ice-cold Krebs’s dissection buffer (120 mM of NaCl; 2 mM of KCl; 26 mM of NaHCO3; 1.18 mM of KH2PO4; 10 mM of MgSO4; 0.5 mM of CaCl2; 11 mM of glucose; and 200 mM sucrose at pH 7.4) using a Leica SE6 microscope (Leica, Madrid, Spain). Striatum-containing slices were selected and immediately incubated for stabilization in dissection buffer without sucrose, bubbled with 95% O2 and 5% CO2 for 45 min at 34 °C, allowing slices to recover from slicing injury. […] Finally, cell death and the ROS production were measured.
ROS quantification was performed using the fluorescent probe 2,7′-dichlorodihydrofluorescein diacetate (H2DCFDA, λEx/Em = 495/529 nm; Thermo Fisher, Madrid, Spain). Cell death quantification was performed using the fluorescent probe propidium iodide (PI, λEx/Em = 535/617 nm; Thermo Fisher, Madrid, Spain). […] Fluorescence from striatum slices was then recorded for H2DCFDA (λEx/Em = 495/529 nm), PI (λEx/Em = 535/617 nm), and Hoechst (λEx/Em = 350/461 nm), in an inverted Nikon Eclipse T2000-U microscope (Nikon, Tokyo, Japan). […]

[2] = tested on: blood-brain barrier (passive diffusion); test: Blood–brain barrier permeation assay (PAMPA); details: PAMPA, pH 7.4
[3] = 30 min pre-incubation, 37 °C, read-out: IC50 MAO-B

SMILES	IC50 (hrMAO-B) [µM]	Selectivity Index (MAO-A/MAO-B) (hrMAO-B)	R/O (30/10 µM) Protection (%) (SH-SY5Y cells)	LD50 (µM) AREc32 (AREc32) [µM]	Papp [1] [×10⁻⁶ cm/s]	MAO isozyme selectivity (hrMAO-B; MAO-B vs MAO-A)	IC50 (hrMAO-B; [3]) [µM]	LD50 (µM) SH-SY5Y (SH-SY5Y) [µM]	ROS levels (H2DCFDA), rotenone model (rat striatal slices)	Papp at 4 h, 100 µM [2] [×10⁻⁶ cm/s]
C#CCN(CC#C)CCc1c[nH]c2ccc(OC)cc12 [Compound 13, N-(2-(5-Methoxy-1H-indol-3-yl)ethyl)-N-(prop-2-yn-1-yl)prop-2-yn-1-amine]	89.1 ± 4.3	>1.12	42.7	> 30	20.3 ± 7.5					
C#CCNCCc1c[nH]c2ccc(OC)cc12 [Compound 10, N-(2-(5-Methoxy-1H-indol-3-yl)ethyl)prop-2-yn-1-amine]	77.6 ± 9.1	0.0106	44.6	> 30	12.3 ± 0.62	MAO-A selectivity				
C#CCN(CC#C)CCc1c[nH]c2ccc(OC(=O)C=Cc3ccccc3)cc12 [Compound 14, 3-(2-(Di(prop-2-yn-1-yl)amino)ethyl)-1H-indol-5-yl Cinnamate]			53.3	> 30			17 ± 1.6	66.5 ± 9.8	reduced	4.15 ± 1.8
C#CCN(CC#C)CCc1c[nH]c2ccc(OC(=O)/C=C/c3ccc(C)cc3)cc12 [Compound 15, 3-(2-(Di(prop-2-yn-1-yl)amino)ethyl)-1H-indol-5-yl-(E)-3-(p-tolyl) Acrylate]			36.4	> 30			28.1 ± 0.6	48.3 ± 6.6		4.46 ± 1.9
